Assay results reported in publication PMC10725991, “Kaempferol is a novel antiviral agent against channel catfish virus infection through blocking viral attachment and penetration in vitro” (Frontiers in Veterinary Science, 2023).

Assays:
CCV in CCO cells = experiment: Virus penetration assay; assay type: cell-based, Channel catfish virus (CCV, Ictalurid herpesvirus 1); conditions: kaempferol 15 μg/mL, 24 h
Experimental: Confluent CCO cells in 24-well plates were prechilled at 4°C, and then infected with CCV at 4°C for 1 h. After triple washing with pre-cooled PBS, the cells were treated with kaempferol (15 μg/mL) or medium at 28°C for 4 h. The compound dilutions were aspirated and the cells were rinsed with citrate buffer (pH 3.0) in order to inactivate and remove not penetrated virus. After incubated at 28°C for 24 h, the cells were collected for subsequent experiments, including RT-qPCR and viral titer.
Measurement of viral titer was described previously ([5]). In brief, CCO cells were cultured in 96-well plates, and they were infected with 10-fold serially diluted samples that were collected previously. At 72 h post-infection, the cells were directly observed under an inverted microscope. […]
For RT-qPCR, the total RNA was isolated from CCV-infected cells using RnaExTM (Trizol)^a reagent (GENERAY, China), and reversed transcribed applying a HiScript III RT SuperMix with gDNA wiper (Vazyme, China) following the manufacturer’s instructions. Quantitative PCR was performed with a LightCycler 96 Real-Time PCR Detection System (Roche, USA) using ChamQ Universal SYBR qPCR Master Mix (Vazyme, China) with the following cycle conditions: 95°C for 30 s, followed by 40 cycles of 95°C for 10 s and 60°C for 30 s. […] Fold changes of the selected gene vs 18 s (internal reference) were calculated by the 2^−△△Ct method. […]

CCO cells = experiment: Compounds cytotoxicity assay (CCK-8 cell viability); assay type: cell-based; conditions: channel catfish, 72 h
Experimental: The cytotoxicity effects of the selected compounds were detected in CCO cells by the cell viability assay. In brief, the CCO cells were seeded in 96-well plates and cultured to reach approximately 90% confluence in each well at 28°C. Subsequently, the monolayer cells were exposed to a maintenance medium with the tested compounds at different concentrations or DMSO for 72 h. Cell Counting Kit-8 (Beyotime, China) was used to measure the cell viability according to the manufacturer’s protocol after 72 h incubation. The optical density at 450 nm was measured using a Spark microplate reader (TECAN, Switzerland). Then, the maximum safe concentration (≥ 90% cell survived, SC90) of compounds to CCO cells was calculated according to the cell viability.
All data were analyzed with GraphPad Prism 8.0. Viral titers were log10 transformed prior to statistical analyses. The SC90 values were calculated using probit analysis. The data are expressed as the arithmetic mean ± standard deviation (SD) and were analyzed by one-way ANOVA with multiple comparisons test. Statistical significance was defined as *p < 0.05, **p < 0.01.
Figure 1 Cytotoxicity assay. The CCO cells were treated with 12 tested compounds with different concentrations in a 96-well plate for 72 h, and then the cell viability was measured by CCK-8. (A) Kaempferol, (B) Tannic acid, (C) P-Coumaric acid, (D) Magnolol, (E) Baicalein, (F) Genistein, (G) Mangiferin, (H) Rosmarinic acid, (I) Artemisinin, (J) Myricetin, (K) Ginkgolic acid, (L) Shikonin. Data represent mean ± SD normalized to values for DMSO treated group. The SC90 was analyzed and calculated using probit analysis. TEXT PRINTED IN THE PICTURE: (A) Kaempferol: SC90 = 47.53 μg/ml | (B) Tannic acid: SC90 = 90.02 μg/ml | (C) P-Coumaric acid: SC90 ≥500 μg/ml | (D) Magnolol: SC90 = 10.02 μg/ml | (E) Baicalein: SC90 = 29.73 μg/ml | (F) Genistein: SC90 = 13.66 μg/ml | (G) Mangiferin: SC90 ≥500 μg/ml | (H) Rosmarinic acid: SC90 = 46.37 μg/ml | (I) Artemisinin: SC90 ≥500 μg/ml | (J) Myricetin: SC90 = 346.19 μg/ml | (K) Ginkgolic acid: SC90 = 10.89 μg/ml | (L) Shikonin: SC90 = 54.44 μg/ml DOUBTS OF THE COPYIST ABOUT THIS PICTURE: All SC90 values are in small print, so 3, 5, 6, 8 and 9 are hard to tell apart / Kaempferol, SC90: 47.53 (5 or 3 uncertain) / Tannic acid, SC90: 90.02 (9 or 8 uncertain) / Baicalein, SC90: 29.73 (9 or 3 uncertain) / Genistein, SC90: 13.66 (3 and 6 uncertain) / Rosmarinic acid, SC90: 46.37 (6 and 3 uncertain) / Myricetin, SC90: 346.19 (3, 6 and 9 uncertain) / Ginkgolic acid, SC90: 10.89 (8 and 9 uncertain) / Shikonin, SC90: 54.44 (5 uncertain) / P-Coumaric acid, Mangiferin, Artemisinin, SC90: sign ≥ or >; 500 (5 uncertain)

O=c1c(O)c(-c2ccc(O)cc2)oc2cc(O)cc(O)c12 [Kaempferol]
down-regulation of viral internalization (CCV ORF 39/ORF 59, RT-qPCR) vs CCV control (CCV in CCO cells; 4 h at 28°C): more than 50% | production of intracellular virus (virus titer), penetration assay (CCV in CCO cells): significantly reduced | SC90 (maximum safe concentration, ≥ 90% cell survived) (CCO cells): 47.53 µg/mL
